From patent publication US9376392B2, “2-(tert-butoxy)-2-(7-methylquinolin-6-yl) acetic acid derivatives for treating AIDS” (Gilead Sciences, Inc., priority 2012, dated 2016)

Test system: HIV-IIIb (MT-4 cells)
Assay: Test A: Antiviral Assays in MT4 Cells
Assay type: cell-based
Conditions: MT-4 cells infected with HIV-IIIb, 5 days of incubation, CellTiter-Glo readout
Procedure: The antiviral properties of a compound disclosed herein may be determined using Test A described below.
Test A: Antiviral Assays in MT4 Cells
For the antiviral assay utilizing MT-4 cells, 0.4 μL of […] test concentration of 3-fold serially diluted compound in DMSO was added to 40 μL of cell growth medium (RPMI 1640, 10% FBS, 1% penicillin/Streptomycin, 1% L-Glutamine, 1% HEPES) in each well of 384-well assay plates (10 concentrations) in quadruplicate.
1 mL aliquots of 2×10e6 MT-4 cells are pre-infected for 1 and 3 hrs respectively, @ 37° C. with 25 μL (MT4) or of either cell growth medium (mock-infected) or a fresh 1:250 dilution of an HIV-IIIb concentrated ABI stock (0.004 m.o.i. for MT4 cells). Infected and uninfected cells are diluted in cell growth medium and 35 μL of 2000 (for MT4) cells is added to each well of the assay plates.
Assay plates were then incubated in a 37° C. incubator. After 5 days of incubation, […] 2× concentrated CellTiter-Glo™ Reagent (catalog #G7573, Promega Biosciences, Inc., Madison, Wis.) was added to each well of the assay plate. Cell lysis was carried out by incubating at room temperature for 2-3 min and then chemiluminescence was read using the Envision reader (PerkinElmer).

Question: How did the EC50 (MT4, 120 h) turn out when `Cc1cc2nc(OCc3cccc(C(F)(F)F)c3)ccc2c(-c2ccc3c4c(ccnc24)CCO3)c1[C@H](OC(C)(C)C)C(=O)O` (atropisomer, axis not shown) [Example 3, (S)-2-tert-Butoxy-2-((R)-5-(2,3-dihydropyrano[4,3,2-de]quinolin-7-yl)-7-methyl-2-(3-(trifluoromethyl)benzyloxy)quinolin-6-yl)acetic acid] was run?
Answer: 123 nM

Question: `Cc1ccc2c(-c3ccc4c5c(ccnc35)CCO4)c([C@H](OC(C)(C)CCc3ccccc3)C(=O)O)c(C)cc2n1` (atropisomer, axis not shown) [Example 38, (2S)-2-((R)-5-(2,3-Dihydropyrano[4,3,2-de]quinolin-7-yl)-2,7-dimethylquinolin-6-yl)-2-(2-methyl-4-phenylbutan-2-yloxy)acetic acid] was tested. Which EC50 (MT4, 120 h) did it give?
Answer: 38.1 nM

Question: How did the EC50 (MT4, 120 h) turn out when `CNc1ccc2c(-c3ccc4c5c(ccnc35)CCO4)c([C@H](OC(C)(C)C)C(=O)O)c(C)cc2n1` (atropisomer, axis not shown) [Example 46, (S)-2-tert-Butoxy-2-((R)-5-(2,3-dihydropyrano[4,3,2-de]quinolin-7-yl)-7-methyl-2-(methylamino)quinolin-6-yl)acetic acid] was run?
Answer: 265 nM

Question: For `CCC(C)(CC)O[C@H](C(=O)O)c1c(C)cc2nc(C)ccc2c1-c1ccc2c3c(ccnc13)CCO2` (atropisomer, axis not shown) [Example 42, (S)-2-((S)-5-(2,3-Dihydropyrano[4,3,2-de]quinolin-7-yl)-2,7-dimethylquinolin-6-yl)-2-(3-methylpentan-3-yloxy)acetic acid], which EC50 is on record?
Answer: 5630 nM

Question: `Cc1cc2nc(OCc3ccc(OC(F)(F)F)cc3)ccc2c(-c2ccc3c4c(ccnc24)CCO3)c1[C@H](OC(C)(C)C)C(=O)O` (atropisomer, axis not shown) [Example 13, (S)-2-tert-Butoxy-2-((R)-5-(2,3-dihydropyrano[4,3,2-de]quinolin-7-yl)-7-methyl-2-(4-(trifluoromethoxy)benzyloxy)quinolin-6-yl)acetic acid] was tested. Which EC50 (MT4, 120 h) did it give?
Answer: 285 nM

Question: With `Cc1cc2c(ccc(=O)n2Cc2cnccn2)c(-c2ccc3c4c(ccnc24)CCO3)c1[C@H](OC(C)(C)C)C(=O)O` (atropisomer, axis not shown) [Example 23, (S)-2-tert-Butoxy-2-((R)-5-(2,3-dihydropyrano[4,3,2-de]quinolin-7-yl)-7-methyl-2-oxo-1-(pyrazin-2-ylmethyl)-1,2-dihydroquinolin-6-yl)acetic acid] as the compound, how does the EC50 (MT4, 120 h) read?
Answer: 383 nM

Question: How did the EC50 turn out when `CCC(C)(CC)O[C@H](C(=O)O)c1c(C)cc2nc(C)ccc2c1-c1ccc2c3c(ccnc13)CCO2` (atropisomer, axis not shown) [Example 41, (S)-2-((R)-5-(2,3-Dihydropyrano[4,3,2-de]quinolin-7-yl)-2,7-dimethylquinolin-6-yl)-2-(3-methylpentan-3-yloxy)acetic acid] was run?
Answer: 39 nM

Question: For `Cc1cc2nc(NC(=O)c3ccccc3)ccc2c(-c2ccc3c4c(ccnc24)CCO3)c1[C@H](OC(C)(C)C)C(=O)O` (atropisomer, axis not shown) [Example 49, (S)-2-((R)-2-Benzamido-5-(2,3-dihydropyrano[4,3,2-de]quinolin-7-yl)-7-methylquinolin-6-yl)-2-tert-butoxyacetic acid], which EC50 (MT4, 120 h) is on record?
Answer: 134 nM

Question: `Cc1cc2c(ccc(=O)n2Cc2ccc3c(cnn3C)c2)c(-c2ccc3c4c(ccnc24)CCO3)c1[C@H](OC(C)(C)C)C(=O)O` (atropisomer, axis not shown) [Example 29, (S)-2-tert-Butoxy-2-((R)-5-(2,3-dihydropyrano[4,3,2-de]quinolin-7-yl)-7-methyl-1-((1-methyl-1H-indazol-5-yl)methyl)-2-oxo-1,2-dihydroquinolin-6-yl)acetic acid] was tested. Which EC50 (MT4, 120 h) did it give?
Answer: 85.5 nM

Question: `Cc1cc2c(ccc(=O)n2Cc2cncc(C(F)(F)F)c2)c(-c2ccc3c4c(ccnc24)CCO3)c1[C@H](OC(C)(C)C)C(=O)O` (atropisomer, axis not shown) [Example 31, (S)-2-tert-Butoxy-2-((R)-5-(2,3-dihydropyrano[4,3,2-de]quinolin-7-yl)-7-methyl-2-oxo-1-((5-(trifluoromethyl)pyridin-3-yl)methyl)-1,2-dihydroquinolin-6-yl)acetic acid] was tested. Which EC50 (MT4, 120 h) did it give?
Answer: 68.2 nM
